Format in all cases: functional
In experiment [1] the test system is Staphylococcus aureus. The experiment in a line: Antibacterial activity against Staphylococcus aureus KCTC 4220 after 24 hrs by two-fold serial dilution method. The conditions noted are these: KCTC 4220, 24 h.
For experiment [2], the system named is Staphylococcus aureus. In words: Antibacterial activity against Staphylococcus aureus KCTC 209 after 24 hrs by two-fold serial dilution method. Conditions: KCTC 209, 24 h.
Experiment [3] concerns Staphylococcus aureus. In words: Antibacterial activity against Staphylococcus aureus KCTC 503 after 24 hrs by two-fold serial dilution method. Conditions: KCTC 503, 24 h.
Experiment [4] has as its system Escherichia coli. In words: Antibacterial activity against Escherichia coli 1356 after 24 hrs by two-fold serial dilution method. The conditions noted are these: Escherichia coli, 1356, 24 h.
Experiment [5] has as its system Staphylococcus aureus. The experiment in a line: Antibacterial activity against methicillin-resistant Staphylococcus aureus CCARM 3167 after 24 hrs by two-fold serial dilution method. The conditions noted are these: CCARM 3167, 24 h.
The test system of experiment [6] is Staphylococcus aureus. In words: Antibacterial activity against methicillin-resistant Staphylococcus aureus CCARM 3506 after 24 hrs by two-fold serial dilution method. Conditions: CCARM 3506, 24 h.
The subject of experiment [7] is Staphylococcus aureus. In words: Antibacterial activity against quinolone-resistant Staphylococcus aureus CCARM 3505 after 24 hrs by two-fold serial dilution method. The conditions noted are these: CCARM 3505, 24 h.
Experiment [8] relates to Staphylococcus aureus. In words: Antibacterial activity against quinolone-resistant Staphylococcus aureus CCARM 3519 after 24 hrs by two-fold serial dilution method. The conditions noted are these: CCARM 3519, 24 h.

SMILES strings stand for the structures. Values after ≈ are worked out from the molar mass of the structure shown.

Here are results for ten compounds from ChEMBL document CHEMBL2040848, “Synthesis and bioactivity evaluation of rhodanine derivatives as potential anti-bacterial agents” (2012).

The MIC is the lowest concentration found to suppress growth.

In the case of `O=C(COc1ccc(/C=C2\SC(=S)N([C@@H](Cc3c[nH]c4ccccc34)C(=O)O)C2=O)cc1)c1ccccc1Cl`, the MIC is 8 µg/mL (≈ 13.9 µM) in experiment [1]; 4 µg/mL (≈ 6.93 µM) in experiment [2]; 4 µg/mL (≈ 6.93 µM) in experiment [3]; above 64 µg/mL in experiment [4]; 8 µg/mL (≈ 13.9 µM) in experiment [5]; 8 µg/mL (≈ 13.9 µM) in experiment [6]. Besides, the MIC in experiment [7] and in experiment [8] was 8 µg/mL (≈ 13.9 µM) each time.

With `O=C(COc1ccc(/C=C2\SC(=S)N([C@@H](Cc3ccc(O)cc3)C(=O)O)C2=O)cc1)c1ccc(Cl)cc1Cl`, the MIC in experiment [1] was 8 µg/mL (≈ 13.6 µM); in experiment [2], 4 µg/mL (≈ 6.8 µM); in experiment [3], 4 µg/mL (≈ 6.8 µM); in experiment [4] it was above 64 µg/mL; in experiment [5], 8 µg/mL (≈ 13.6 µM); in experiment [6] it was 8 µg/mL (≈ 13.6 µM). In addition, the MIC in experiment [7] and in experiment [8] was 8 µg/mL (≈ 13.6 µM) throughout.

For `Cc1onc(-c2ccccc2)c1C(=O)N[C@@H]1C(=O)N2[C@@H]1SC(C)(C)[C@@H]2C(=O)O` [OXACILLIN], the MIC in experiment [1] was 1 µg/mL (≈ 2.49 µM); in experiment [2] it was 1 µg/mL (≈ 2.49 µM); in experiment [3], 1 µg/mL (≈ 2.49 µM); in experiment [4], above 64 µg/mL; in experiment [5], above 64 µg/mL; in experiment [6] it was above 64 µg/mL. Further, the MIC in experiment [7] and in experiment [8] was 1 µg/mL (≈ 2.49 µM) throughout.

For the compound `O=C(COc1ccc(/C=C2\SC(=S)N([C@@H](Cc3ccc(O)cc3)C(=O)O)C2=O)cc1)c1ccc(Cl)cc1`, the minimal inhibitory concentration (MIC) in experiment [1] is 16 µg/mL (≈ 28.9 µM); in experiment [2] it was 8 µg/mL (≈ 14.4 µM); in experiment [3], 8 µg/mL (≈ 14.4 µM); in experiment [4] it was above 64 µg/mL; in experiment [5], 8 µg/mL (≈ 14.4 µM); in experiment [6], 16 µg/mL (≈ 28.9 µM). In addition, the MIC came out at 8 µg/mL (≈ 14.4 µM) in experiment [7] and 16 µg/mL (≈ 28.9 µM) in experiment [8].

Take `O=C(COc1ccc(/C=C2\SC(=S)N([C@@H](Cc3ccc(O)cc3)C(=O)O)C2=O)cc1)c1ccccc1F`: the minimal inhibitory concentration (MIC) in experiment [1] was 32 µg/mL (≈ 59.5 µM); in experiment [2], 8 µg/mL (≈ 14.9 µM); in experiment [3], 16 µg/mL (≈ 29.8 µM); in experiment [4] it was above 64 µg/mL; in experiment [5] it was 16 µg/mL (≈ 29.8 µM); in experiment [6], 16 µg/mL (≈ 29.8 µM). For the same compound, the MIC in experiment [7] and in experiment [8] was 16 µg/mL (≈ 29.8 µM) in each case.

In the case of `O=C(COc1ccc(/C=C2\SC(=S)N([C@@H](Cc3c[nH]c4ccccc34)C(=O)O)C2=O)cc1)c1ccccc1`, the MIC in experiment [1] is 8 µg/mL (≈ 14.7 µM); in experiment [2], 8 µg/mL (≈ 14.7 µM); in experiment [3], 8 µg/mL (≈ 14.7 µM); in experiment [4], above 64 µg/mL; in experiment [5], 8 µg/mL (≈ 14.7 µM); in experiment [6], 8 µg/mL (≈ 14.7 µM). Also, the MIC in experiment [7] and in experiment [8] was 8 µg/mL (≈ 14.7 µM) throughout.

Consider `O=C(COc1ccc(/C=C2\SC(=S)N([C@@H](Cc3ccccc3)C(=O)O)C2=O)cc1)c1ccc(Br)cc1`, for which the minimum inhibitory concentration (MIC) in experiment [1] was 8 µg/mL (≈ 13.7 µM); in experiment [2], 8 µg/mL (≈ 13.7 µM); in experiment [3], 8 µg/mL (≈ 13.7 µM); in experiment [4], above 64 µg/mL; in experiment [5] it was 4 µg/mL (≈ 6.87 µM); in experiment [6], 8 µg/mL (≈ 13.7 µM). Also, the values for the minimum inhibitory concentration (MIC) in experiment [7] and in experiment [8] were 4 µg/mL (≈ 6.87 µM) and 8 µg/mL (≈ 13.7 µM), respectively.

In the case of `O=C(COc1ccc(/C=C2\SC(=S)N([C@@H](Cc3ccccc3)C(=O)O)C2=O)cc1)c1cccc(Br)c1`, the MIC in experiment [1] is 4 µg/mL (≈ 6.87 µM); in experiment [2] it was 4 µg/mL (≈ 6.87 µM); in experiment [3] it was 4 µg/mL (≈ 6.87 µM); in experiment [4], above 64 µg/mL; in experiment [5] it was 4 µg/mL (≈ 6.87 µM); in experiment [6] it was 4 µg/mL (≈ 6.87 µM). Moreover, the MIC in experiment [7] and in experiment [8] was 4 µg/mL (≈ 6.87 µM) in each case.

Take `O=C(COc1ccc(/C=C2\SC(=S)N([C@@H](Cc3ccc(O)cc3)C(=O)O)C2=O)cc1)c1ccc(F)cc1`: the minimum inhibitory concentration (MIC) in experiment [1] is 8 µg/mL (≈ 14.9 µM); in experiment [2] it was 8 µg/mL (≈ 14.9 µM); in experiment [3], 8 µg/mL (≈ 14.9 µM); in experiment [4], above 64 µg/mL; in experiment [5] it was 8 µg/mL (≈ 14.9 µM); in experiment [6] it was 8 µg/mL (≈ 14.9 µM). Further, the minimum inhibitory concentration (MIC) in experiment [7] and in experiment [8] was 8 µg/mL (≈ 14.9 µM) each time.

As for `COc1ccccc1C(=O)COc1ccc(/C=C2\SC(=S)N([C@@H](Cc3ccccc3)C(=O)O)C2=O)cc1`, the MIC in experiment [1] is 4 µg/mL (≈ 7.5 µM); in experiment [2], 4 µg/mL (≈ 7.5 µM); in experiment [3] it was 4 µg/mL (≈ 7.5 µM); in experiment [4] it was above 64 µg/mL; in experiment [5], 4 µg/mL (≈ 7.5 µM); in experiment [6], 4 µg/mL (≈ 7.5 µM). The minimal inhibitory concentration (MIC) in experiment [7] and in experiment [8] was 4 µg/mL (≈ 7.5 µM) throughout.
